What all share (experiment): Kinase panel profiling at 1 µmol/L (MSA or IMAP), percentage inhibition
Type in all cases: biochemical

Test [1] deals with panel of 255 wild-type kinases (Homo sapiens, UniProt P19525). Particulars: kinase PKR; 1 µmol/L single concentration; read-out: %-inhibition at 1 µmol/L, PKR.
In test [2] the target is panel of 255 wild-type kinases (Homo sapiens, UniProt Q9HCP0). To be noted: kinase CK1γ1; 1 µmol/L single concentration; read-out: %-inhibition at 1 µmol/L, CK1γ1.
The target of test [3] is T1, panel of 255 wild-type kinases (Homo sapiens, UniProt Q9NRA0).
T1 sequence (Q9NRA0 1-654): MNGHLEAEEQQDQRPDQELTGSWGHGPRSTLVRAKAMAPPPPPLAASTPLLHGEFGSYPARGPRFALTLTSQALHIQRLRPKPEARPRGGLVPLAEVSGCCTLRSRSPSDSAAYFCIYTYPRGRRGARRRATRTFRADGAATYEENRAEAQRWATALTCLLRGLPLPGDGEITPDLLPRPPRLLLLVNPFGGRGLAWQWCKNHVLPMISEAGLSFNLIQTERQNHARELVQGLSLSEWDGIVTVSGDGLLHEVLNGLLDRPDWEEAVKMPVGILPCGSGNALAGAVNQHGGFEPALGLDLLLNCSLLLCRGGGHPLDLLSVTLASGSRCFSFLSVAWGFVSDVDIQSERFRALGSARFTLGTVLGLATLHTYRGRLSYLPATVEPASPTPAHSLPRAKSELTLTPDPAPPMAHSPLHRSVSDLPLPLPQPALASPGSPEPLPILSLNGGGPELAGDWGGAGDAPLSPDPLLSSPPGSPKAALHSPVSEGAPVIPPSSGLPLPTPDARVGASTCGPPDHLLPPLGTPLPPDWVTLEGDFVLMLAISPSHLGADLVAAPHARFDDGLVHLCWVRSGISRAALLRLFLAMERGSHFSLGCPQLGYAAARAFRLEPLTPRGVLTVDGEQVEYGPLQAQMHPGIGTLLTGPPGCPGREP
Particulars: kinase SPHK2; 1 µmol/L single concentration; read-out: %-inhibition at 1 µmol/L, SPHK2.

For test [4], the target named is panel of 255 wild-type kinases (Homo sapiens, UniProt Q96RG2). Particulars: PASK; 1 µmol/L single concentration; read-out: %-inhibition, PASK.
In test [5] the target is T2, panel of 255 wild-type kinases (Homo sapiens, UniProt O94806).
T2 sequence (O94806 1-890): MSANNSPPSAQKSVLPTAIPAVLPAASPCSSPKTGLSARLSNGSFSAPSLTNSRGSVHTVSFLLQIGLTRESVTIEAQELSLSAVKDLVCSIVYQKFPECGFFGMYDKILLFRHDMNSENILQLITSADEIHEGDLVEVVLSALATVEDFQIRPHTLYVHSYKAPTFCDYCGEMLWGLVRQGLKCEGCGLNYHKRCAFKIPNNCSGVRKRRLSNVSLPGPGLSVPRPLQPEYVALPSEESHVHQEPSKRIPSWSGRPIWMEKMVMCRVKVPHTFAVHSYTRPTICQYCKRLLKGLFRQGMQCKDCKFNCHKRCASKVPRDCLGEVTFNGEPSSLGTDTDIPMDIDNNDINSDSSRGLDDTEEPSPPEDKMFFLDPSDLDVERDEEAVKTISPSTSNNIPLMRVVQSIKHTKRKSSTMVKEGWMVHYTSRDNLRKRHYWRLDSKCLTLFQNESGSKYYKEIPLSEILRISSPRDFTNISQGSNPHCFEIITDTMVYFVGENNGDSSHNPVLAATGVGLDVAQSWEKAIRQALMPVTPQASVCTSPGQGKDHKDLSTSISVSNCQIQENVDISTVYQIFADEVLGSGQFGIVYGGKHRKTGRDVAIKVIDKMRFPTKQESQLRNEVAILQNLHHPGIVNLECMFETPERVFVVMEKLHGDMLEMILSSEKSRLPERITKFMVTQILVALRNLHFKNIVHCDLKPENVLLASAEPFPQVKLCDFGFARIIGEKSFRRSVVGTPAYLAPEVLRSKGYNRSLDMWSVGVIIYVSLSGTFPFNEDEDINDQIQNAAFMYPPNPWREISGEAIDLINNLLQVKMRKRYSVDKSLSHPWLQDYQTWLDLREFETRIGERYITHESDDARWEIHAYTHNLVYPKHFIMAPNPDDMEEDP
Particulars: kinase PKD3; 1 µmol/L single concentration; read-out: %-inhibition at 1 µmol/L, PKD3.

Test [6] concerns the target panel of 255 wild-type kinases (Homo sapiens, UniProt P42684). Particulars: ARG kinase assay; 1 µmol/L single concentration; read-out: %-inhibition ARG.
The target in test [7] is panel of 255 wild-type kinases (Homo sapiens, UniProt Q96SB4). Particulars: kinase SRPK1; 1 µmol/L single concentration; read-out: %-inhibition at 1 µmol/L, SRPK1.
Test [8] deals with panel of 255 wild-type kinases (Homo sapiens, UniProt P54764). Particulars: kinase EPHA4; 1 µmol/L single concentration; read-out: %-inhibition at 1 µmol/L, EPHA4.
Test [9] deals with panel of 255 wild-type kinases (Homo sapiens, UniProt P27448). To be noted: MARK3; 1 µmol/L single concentration; read-out: %-inhibition, MARK3.
The target of test [10] is panel of 255 wild-type kinases (Homo sapiens, UniProt Q16654). To be noted: kinase PDHK4; 1 µmol/L single concentration; read-out: %-inhibition at 1 µmol/L, PDHK4.
In test [11] the target is panel of 255 wild-type kinases (Homo sapiens, UniProt P29317). Particulars: kinase EPHA2; 1 µmol/L single concentration; read-out: %-inhibition at 1 µmol/L, EPHA2.
For test [12], the target named is panel of 255 wild-type kinases (Homo sapiens, UniProt P17948). Particulars: kinase FLT1; 1 µmol/L single concentration; read-out: %-inhibition at 1 µmol/L, FLT1.

This is an account of results in paper PMC9516332 (Frontiers in Oncology, 2022).

Structures are written as SMILES.

Consider `CCN1CCN(c2ccc(Nc3cc(N(C)C(=O)Nc4c(Cl)c(OC)cc(OC)c4Cl)ncn3)cc2)CC1` [infigratinib], for which the inhibition at 1 µM is 76% in test [1]; -0.947% in test [2]; 2% in test [3]; -1.46% in test [4]; 11% in test [5]; 24% in test [6]. Moreover, the inhibition at 1 µM in test [7] was -0.85%; in test [8], 0.256%; in test [9], -7.59%; in test [10], -1.46%; in [11] it was 0.318%; in [12], 91%.

Regarding `O=C(Nc1cnn2ccc(N3CCC[C@@H]3c3cc(F)ccc3F)nc12)N1CC[C@H](O)C1` [larotrectinib], the inhibition at 1 µM in test [1] is -2.17%; in test [2], -4.74%; in test [3] it was -1.56%; in test [4] it was 0.745%; in test [5], 8%; in [6], -0.835%. Also, the inhibition at 1 µM was -12% in test [7]; -0.0271% in [8]; 4% in [9]; 2% in test [10]; 0% in test [11]; -0.638% in test [12].

`C[C@H]1Oc2cc(cnc2N)-c2c(nn(C)c2C#N)CN(C)C(=O)c2ccc(F)cc21` [lorlatinib]: the inhibition at 1 µM in [1] was 0.666%; in test [2] it was -2.3%; in test [3], 10%; in test [4], 0.792%; in test [5] it was 1.46%; in test [6] it was 1.49%. Moreover, the inhibition at 1 µM is 5.65% in test [7]; 25% in test [8]; 26% in [9]; -0.664% in test [10]; 45% in test [11]; 3.17% in test [12].

`CCN1C(=O)N(c2c(F)c(OC)cc(OC)c2F)Cc2cnc3[nH]c(CN4CCOCC4)cc3c21` [pemigatinib]: the inhibition at 1 µM in test [1] is 85%; in test [2], -5.5%; in test [3], -5.31%; in test [4], -5%; in [5], 14%; in test [6], 7%. Further, the inhibition at 1 µM in [7] is -12%; in test [8], -1.83%; in test [9], 56%; in [10] it was -4%; in [11], -3.69%; in [12], 95%.

With `FC(F)(F)c1ccc(CNc2ccc(Cc3c[nH]c4ncc(Cl)cc34)cn2)cn1` [pexidartinib], the inhibition at 1 µM in [1] is -10%; in [2] it was 10%; in test [3] it was 7%; in [4], 6%; in [5], -12%; in [6], 7%. The inhibition at 1 µM was -20% in [7]; 1.65% in test [8]; 12% in [9]; 4.63% in test [10]; 7.59% in test [11]; 82% in [12].

As for `CO[C@]1(C(=O)N[C@@H](C)c2ccc(-n3cc(F)cn3)nc2)CC[C@H](c2nc(C)cc(Nc3cc(C)[nH]n3)n2)CC1` [pralsetinib], the inhibition at 1 µM in test [1] is 8%; in test [2] it was 1.83%; in test [3], -2.48%; in [4], -2.38%; in [5], 3%; in test [6], 38%. Moreover, the inhibition at 1 µM in test [7] was -4%; in test [8] it was 52%; in test [9], -8%; in test [10], 12%; in test [11] it was 62%; in test [12], 96%.

`CCn1c(=O)c(-c2cc(NC(=O)Nc3ccccc3)c(F)cc2Br)cc2cnc(NC)cc21` [ripretinib]: the inhibition at 1 µM in test [1] was -6%; in test [2] it was -0.282%; in test [3] it was -10%; in [4] it was -1%; in [5], 15%; in [6] it was 56%. The inhibition at 1 µM was -13% in [7]; 101% in test [8]; 1.78% in test [9]; 4% in test [10]; 100% in test [11]; 91% in test [12].

Turning to `COc1ccc(CN2C3CC2CN(c2ccc(-c4cc(OCC(C)(C)O)cn5ncc(C#N)c45)cn2)C3)cn1` [selpercatinib], the inhibition at 1 µM in [1] was 0.94%; in test [2], 12%; in test [3], -3.75%; in test [4], -2.29%; in test [5] it was 12%; in test [6], 10%. The inhibition at 1 µM in test [7] is -9%; in test [8], 58%; in test [9], 45%; in [10], -2.71%; in [11] it was 49%; in test [12], 98%.

In the case of `Cn1cnc2c(F)c(Nc3ccc(Br)cc3Cl)c(C(=O)NOCCO)cc21` [selumetinib], the inhibition at 1 µM in test [1] is 1.47%; in test [2] it was -2.69%; in [3], -4%; in test [4], -2%; in test [5], 0.359%; in test [6], 1.6%. The inhibition at 1 µM is 6% in [7]; -2.57% in [8]; -6% in [9]; 0.425% in test [10]; -1.4% in test [11]; 4.22% in [12].
